Patent US8722663B2, “Di-substituted pyridine derivatives as anticancers” (Otsuka Pharmaceutical Co., Ltd., priority 2010, dated 2014)
Counter-ions that a name gives are not always drawn.

Tests used:
[1] = tested on: bicalutamide resistant human prostate cancer cell line established from LNCaP.FGC (LNCaP-Bic); assay: Growth inhibition of LNCaP-Bic cells, WST-8 assay; type: cell-based; conditions: 120 h, 5 days with test compound
Procedure: (§1) The growth inhibition on a bicalutamide resistant human prostate cancer cell line established from LNCaP.FGC (LNCaP-Bic) (Hobisch A, et al. Prostate. 2006; 66(4):413-20.) was determined by a WST-8 assay according to the method of Singh A K, et al. (Cancer Lett. 1996 Oct. 1; 107(1): 109-15.). In this method, LNCaP-Bic cells were seeded in RPMI 1640 medium containing 10% fetal bovine serum in a 96-well microplate and incubated at 37° C. for 24 hours in the presence of 5% carbon dioxide. Then, the test compound was added and the cells were incubated for another 5 days. After incubation, a 15-μL volume of WST-8 (2-(2-methoxy-4-nitrophenyl)-3-(4-nitrophenyl)-5-(2,4-[…])-2H-tetrazolium, monosodium salt) was added. After the incubation for the time, the color reaction was stopped by adding 15 μL of 1% SDS (sodium dodecyl sulfate) solution and the optical density was determined at the measurement wavelength of 450 nm and the reference wavelength of 630 nm, and the difference was calculated. The cell growth activity in each well was defined as the value determined by subtracting the OD in the control well not containing cells (the difference in absorbance between 450 nm and 630 nm) from that in the test well.
(§2) The 50% inhibitory concentration (IC50 (nM)) of the test compound was determined by comparing the cell growth activity in the well containing the test compound with that of the control not containing the test compound.

[2] = tested on: human prostate (carcinoma) cell line (LNCaP.FGC); assay: Growth inhibition of LNCaP.FGC cells, WST-8 assay; type: cell-based; conditions: 120 h, 5 days with test compound
Procedure: as §1, §2
The growth inhibition on a human prostate (carcinoma) cell line (LNCaP.FGC) (van Bokhoven A, et al. Prostate. 2003; 57(3):205-25.) was also determined by the above method.

[3] = tested on: human prostate (adenocarcinoma) cell line (VcaP); assay: Growth inhibition of VcaP cells, WST-8 assay; type: cell-based; conditions: 120 h, 5 days with test compound
Procedure: as §1, §2
The growth inhibition on a human prostate (adenocarcinoma) cell line (VcaP) (Korenchuk S, et al. In Vivo. 2001; 15(2):163-8.) was also determined by the above method.

[4] = tested on: human prostate (carcinoma) cell line (DU 145); assay: Growth inhibition of DU 145 cells, WST-8 assay; type: cell-based; conditions: 120 h, 5 days with test compound
Procedure: as §1, §2
The growth inhibition on a human prostate (carcinoma) cell line (DU 145) (van Bokhoven A, et al. Prostate. 2003; 57(3):205-25.) was also determined by the above method.

[5] = tested on: human prostate (adenocarcinoma) cell line (PC-3); assay: Growth inhibition of PC-3 cells, WST-8 assay; type: cell-based; conditions: 120 h, 5 days with test compound
Procedure: as §1, §2
The growth inhibition on a human prostate (adenocarcinoma) cell line (PC-3) (van Bokhoven A, et al. Prostate. 2003; 57(3):205-25.) was also determined by the above method.

| Compound | IC50 [1] [nM] | IC50 [2] [nM] | IC50 [3] [nM] | IC50 [4] [nM] | IC50 [5] [nM] | melting point [°C] |
| --- | --- | --- | --- | --- | --- | --- |
| Cc1ccc(OCCCc2ccc(CN3CCN(C(=O)/C=C/c4cc(C)c(Oc5ccc(OCc6ccc(C#N)cc6)cn5)c(Cl)c4)CC3)cc2)cc1.Cl [Example 621, 4-{[(6-{2-Chloro-6-methyl-4-[(E)-3-(4-{4-[3-(4-methylphenoxy)propyl]benzyl}piperazin-1-yl)-3-oxoprop-1-en-1-yl]phenoxy}pyridin-3-yl)oxy]methyl}benzonitrile hydrochloride] | < 10 | < 10 | < 10 | < 10 | < 10 | 193 to 194.8 |
| Cc1ccc(OCCc2ccc(CN3CCN(C(=O)/C=C/c4cc(C)c(Oc5ccc(OCc6cscn6)cn5)c(C)c4)CC3)cc2)cc1 [Example 601, (E)-3-(3,5-Dimethyl-4-{[5-(1,3-thiazol-4-ylmethoxy)pyridin-2-yl]oxy}phenyl)-1-(4-{4-[2-(4-methylphenoxy)ethyl]benzyl}piperazin-1-yl)prop-2-en-1-one hydrochloride] | < 10 | < 10 | < 10 | < 10 | < 10 | – |
| Cc1cc(/C=C/C(=O)N2CCN(Cc3ccc(CCOc4ccc(C(C)C)cc4)cc3)CC2)cc(C)c1Oc1ccc(OCc2cncs2)cn1.Cl [Example 595, (E)-3-(3,5-Dimethyl-4-{[5-(1,3-thiazol-5-ylmethoxy)pyridin-2-yl]oxy}phenyl)-1-[4-(4-{2-[4-(propan-2-yl)phenoxy]ethyl}benzyl)piperazin-1-yl]prop-2-en-1-one hydrochloride] | < 10 | < 10 | < 10 | < 10 | < 10 | 199.2 to 200.9 |
| Cc1ccc(COc2ccc(Oc3c(C)cc(/C=C/C(=O)N4CCN(Cc5ccc(CCOc6ccc(F)cc6)cc5)[C@@H](C)C4)cc3Cl)nc2)cc1 [Example 392, (E)-3-[3-chloro-5-methyl-4-({5-[(4-methylbenzyl)oxy]pyridin-2-yl}oxy)phenyl]-1-[(3S)-4-{4-[2-(4-fluorophenoxy)ethyl]benzyl}-3-methylpiperazin-1-yl]prop-2-en-1-one] | < 10 | < 10 | < 10 | < 10 | < 10 | – |
| Cc1cc(/C=C/C(=O)N2CCN(Cc3ccc(CCOc4ccc(F)cc4)cc3)CC2)cc(Cl)c1Oc1ccc(OCc2ccccc2F)cn1.Cl [Example 447, (E)-3-[3-Chloro-4-({5-[(2-fluorobenzyl)oxy]pyridin-2-yl}oxy)-5-methylphenyl]-1-(4-{4-[2-(4-fluorophenoxy)ethyl]benzyl}piperazin-1-yl)prop-2-en-1-one hydrochloride] | < 10 | < 10 | < 10 | < 10 | < 10 | 224 to 224.5 |
| CC(C)c1ccc(OCCc2ccc(CN3CCN(C(=O)/C=C/c4ccc(Oc5ccc(OCc6ccc(C#N)cc6)cn5)c(F)c4)CC3)cc2)cc1 [Example 593, 4-({[6-(2-Fluoro-4-{(E)-3-oxo-3-[4-(4-{2-[4-(propan-2-yl)phenoxy]ethyl}benzyl)piperazin-1-yl]prop-1-en-1-yl}phenoxy)pyridin-3-yl]oxy}methyl)benzonitrile hydrochloride] | < 10 | < 10 | < 10 | < 10 | < 10 | – |
| Cc1cc(/C=C/C(=O)N2CCN(Cc3ccc(CCOc4ccc(C(F)(F)F)cn4)cc3)CC2)cc(Cl)c1Oc1ccc(OCc2ccc(C#N)cc2)cn1.Cl [Example 613, 4-{[(6-{2-Chloro-6-methyl-4-[(E)-3-oxo-3-{4-[4-(2-{[5-(trifluoromethyl)pyridin-2-yl]oxy}-ethyl)benzyl]piperazin-1-yl}prop-1-en-1-yl]phenoxy}pyridin-3-yl)oxy]methyl}benzonitrile hydrochloride] | < 10 | < 10 | < 10 | < 10 | < 10 | 193.7 to 194.2 |
| Cc1ccc(OCCc2ccc(CN3CCN(C(=O)/C=C/c4cc(C)c(Oc5ccc(OCc6ccccc6F)cn5)c(Cl)c4)CC3)cc2)cc1 [Example 451, (E)-3-[3-Chloro-4-({5-[(2-fluorobenzyl)oxy]pyridin-2-yl}oxy)-5-methylphenyl]-1-(4-{4-[2-(4-methylphenoxy)ethyl]benzyl}piperazin-1-yl)prop-2-en-1-one hydrochloride] | < 10 | < 10 | < 10 | < 10 | < 10 | – |
| Cc1cc(/C=C/C(=O)N2CCN(Cc3ccc(CCOc4ccc(Cl)cc4)cc3)CC2)cc(Cl)c1Oc1ccc(OCc2ccccc2Cl)cn1 [Example 466, (E)-3-[3-Chloro-4-({5-[(2-chlorobenzyl)oxy]pyridin-2-yl}oxy)-5-methylphenyl]-1-(4-{4-[2-(4-chlorophenoxy)ethyl]benzyl}piperazin-1-yl)prop-2-en-1-one hydrochloride] | < 10 | < 10 | < 10 | < 10 | < 10 | – |

Continued, values first:

| IC50 [1] [nM] | IC50 [2] [nM] | IC50 [3] [nM] | IC50 [4] [nM] | IC50 [5] [nM] | melting point [°C] | Compound |
| --- | --- | --- | --- | --- | --- | --- |
| < 10 | < 10 | < 10 | < 10 | < 10 | 224.7 to 224.8 | Cc1ccc(COc2ccc(Oc3c(C)cc(/C=C/C(=O)N4CCN(Cc5ccc(CCOc6ccc(Cl)cc6)cc5)CC4)cc3Cl)nc2)cc1F.Cl [Example 427, (E)-3-[3-Chloro-4-({5-[(3-fluoro-4-methylbenzyl)oxy]pyridin-2-yl}oxy)-5-methylphenyl]-1-(4-{4-[2-(4-chlorophenoxy)ethyl]benzyl}piperazin-1-yl)prop-2-en-1-one hydrochloride] |
| < 10 | < 10 | < 10 | < 10 | < 10 | 190.4 to 191.8 | CCOc1cccc(OCCc2ccc(CN3CCN(C(=O)/C=C/c4cc(C)c(Oc5ccc(OCc6cncs6)cn5)c(C)c4)CC3)cc2)c1.Cl [Example 594, (E)-3-(3,5-Dimethyl-4-{[5-(1,3-thiazol-5-ylmethoxy)pyridin-2-yl]oxy}phenyl)-1-(4-{4-[2-(3-ethoxyphenoxy)ethyl]benzyl}piperazin-1-yl)prop-2-en-1-one hydrochloride] |
| < 10 | < 10 | < 10 | < 10 | < 10 | 145 to 145.8 | Cc1cc(/C=C/C(=O)N2CCN(Cc3ccc(/C=C/COc4ccc(Br)cn4)cc3)CC2)cc(Cl)c1Oc1ccc(OCc2ccc(C#N)cc2)cn1.Cl [Example 657, 4-({[6-(4-{(1E)-3-[4-(4-{(1E)-3-[(5-Bromopyridin-2-yl)oxy]prop-1-en-1-yl}benzyl)piperazin-1-yl]-3-oxoprop-1-en-1-yl}-2-chloro-6-methylphenoxy)pyridin-3-yl]oxy}methyl)benzonitrile hydrochloride] |
| < 10 | < 10 | < 10 | < 10 | < 10 | – | Cc1ccc(OCCc2ccc(CN3CCN(C(=O)/C=C/c4cc(C)c(Oc5ccc(OCc6ccccc6Cl)cn5)c(Cl)c4)CC3)cc2)cc1 [Example 452, (E)-3-[3-Chloro-4-({5-[(2-chlorobenzyl)oxy]pyridin-2-yl}oxy)-5-methylphenyl]-1-(4-{4-[2-(4-methylphenoxy)ethyl]benzyl}piperazin-1-yl)prop-2-en-1-one hydrochloride] |
| < 10 | < 10 | < 10 | < 10 | < 10 | – | COc1ccc(COc2ccc(Oc3c(C)cc(/C=C/C(=O)N4CCN(Cc5ccc(CCOc6ccc(C)cc6)cc5C)CC4)cc3C)nc2)cc1 [Example 611, (E)-3-[4-({5-[(4-Methoxybenzyl)oxy]pyridin-2-yl}oxy)-3,5-dimethylphenyl]-1-(4-{2-methyl-4-[2-(4-methylphenoxy)ethyl]benzyl}piperazin-1-yl)prop-2-en-1-one hydrochloride] |
| < 10 | < 10 | < 10 | < 10 | < 10 | 130 to 132 | COc1ccc(COc2ccc(Oc3c(C)cc(/C=C/C(=O)N4CCN(Cc5ccc(/C=C/COc6ccc(C)cc6)cc5)CC4)cc3C)nc2)cc1 [Example 1, (2E)-3-[4-({5-[(4-methoxybenzyl)oxy]pyridin-2-yl}oxy)-3,5-dimethylphenyl]-1-(4-{4-[(1E)-3-(4-methylphenoxy)prop-1-en-1-yl]benzyl}piperazin-1-yl)prop-2-en-1-one] |
